{
  "source": "paper PMC2212834",
  "about": "(The Journal of Experimental Medicine, 2005)",
  "molecular_target": "T1, ChemR23 (Homo sapiens, UniProt Q99788)",
  "T1 sequence (Q99788 1-373)": "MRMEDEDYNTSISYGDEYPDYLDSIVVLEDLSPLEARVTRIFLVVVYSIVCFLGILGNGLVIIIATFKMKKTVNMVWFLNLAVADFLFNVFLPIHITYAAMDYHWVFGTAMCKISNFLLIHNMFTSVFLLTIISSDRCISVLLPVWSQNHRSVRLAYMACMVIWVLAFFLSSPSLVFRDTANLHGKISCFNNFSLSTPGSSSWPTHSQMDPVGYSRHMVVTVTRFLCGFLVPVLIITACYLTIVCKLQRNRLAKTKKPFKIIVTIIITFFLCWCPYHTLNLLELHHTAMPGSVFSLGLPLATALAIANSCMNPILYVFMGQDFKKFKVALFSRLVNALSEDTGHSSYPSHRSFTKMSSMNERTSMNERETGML",
  "experiment": "[3H]-RvE1 saturation radioligand binding",
  "format": "cell-based",
  "data": [
    {"compound": "CC[C@@H](O)/C=C/C=C\\C[C@@H](O)/C=C/C=C/C=C\\[C@@H](O)CCCC(=O)O", "note": "[RvE1, 5S,12R,18R-trihydroxy-6Z,8E,10E,14Z,16E-EPA]", "values": [
      {"measurement": "Kd", "value": "11.3 ± 5.4", "unit": "nM"}
    ]}
  ]
}
